Test results: US10219516B2, “Molecules having pesticidal utility, and intermediates, compositions, and processes, related thereto” (priority 2015, dated 2019)

Experiments:
[1] = test system: Cabbage Looper (Trichoplusia ni, TRIPNI); assay: Bioassay on Cabbage Looper (CL), 128-well diet tray assay; type: in vivo; conditions: Trichoplusia ni; Species CL (Cabbage Looper); read-out: CL (Biological Results, rating)
Procedure: (§1) Certain molecules disclosed in this document were tested against BAW and CL using procedures described in the following examples. In the reporting of the results, the “BAW & CL Rating Table” was used (See Table Section).
Bioassays on CL were conducted using a 128-well diet tray assay. one to five second instar CL larvae were placed in each well (3 mL) of the diet tray that had been previously filled with 1 mL of artificial diet to which 50 μg/cm^2 of the test molecule (dissolved in 50 μL of 90:10 acetone-water mixture) had been applied (to each of eight wells) and then allowed to dry. Trays were covered with a clear self-adhesive cover, vented to allow gas exchange, and held at 25° C., 14:10 light-dark for five to seven days. Percent mortality was recorded for the larvae in each well; activity in the eight wells was then averaged. The results are indicated in the table entitled “Table ABC: Biological Results” (See Table Section).

[2] = test system: Beet Armyworm (Spodoptera exigua, LAPHEG); assay: Bioassay on Beet Armyworm (BAW), 128-well diet tray assay; type: in vivo; conditions: Species BAW (Beet Armyworm), read-out: BAW (Biological Results, rating)
Procedure: as §1
Bioassays on BAW were conducted using a 128-well diet tray assay. One to five second instar BAW larvae were placed in each well (3 mL) of the diet tray that had been previously filled with approximately 1.5 mL of artificial diet to which 50 μg/cm^2 of the test molecule (dissolved in 50 μL of 90:10 acetone-water mixture) had been applied (to each of eight wells) and then allowed to dry. Trays were covered with a clear self-adhesive cover, vented to allow gas exchange, and held at 25° C., 14:10 light-dark for five to seven days. Percent mortality was recorded for the larvae in each well; activity in the eight wells was then averaged. The results are indicated in the table entitled “Table ABC: Biological Results” (See Table Section).

Compound `CN(C(=O)c1cc(NC(=O)[C@H]2[C@H](c3cc(Cl)c(Cl)c(Cl)c3)C2(Cl)Cl)ccc1F)c1ccc(F)cc1` (relative stereo) [F60, trans-5-(2,2-dichloro-3-(3,4,5-trichlorophenyl)cyclopropane-1-carboxamido)-2-fluoro-N-(4-fluorophenyl)-N-methylbenzamide] has a pest or weed control at 50 µg/cm2 [1] of 50 to 100% and a pest or weed control at 50 µg/cm2 [2] of 50 to 100%.
In the case of `O=C(Nc1ccc(F)cc1)c1cc(NC(=O)[C@H]2[C@H](c3cc(Cl)c(Br)c(Cl)c3)C2(Cl)Cl)ccc1Cl` (relative stereo) [F72, trans-5-(3-(4-Bromo-3,5-dichlorophenyl)-2,2-dichlorocyclopropane-1-carboxamido)-2-chloro-N-(4-fluorophenyl)benzamide], the pest or weed control at 50 µg/cm2 [1] was 50 to 100% and the pest or weed control at 50 µg/cm2 [2] was 50 to 100%.
With `O=C(Nc1ccc(F)cc1)c1cc(NC(=O)[C@H]2[C@H](c3cc(Cl)c(Cl)cc3Cl)C2(Cl)Cl)ccc1Cl` (relative stereo) [F73, trans-2-Chloro-5-(2,2-dichloro-3-(2,4,5-trichlorophenyl)cyclopropane-1-carboxamido)-N-(4-fluorophenyl)benzamide] the pest or weed control at 50 µg/cm2 [1] was 50 to 100% and the pest or weed control at 50 µg/cm2 [2] was 50 to 100%.
`O=C(Nc1ccccn1)c1cc(NC(=O)[C@H]2[C@H](c3cc(Cl)cc(Cl)c3)C2(Cl)Cl)ccc1Cl` (relative stereo) [F78, trans-2-Chloro-5-(2,2-dichloro-3-(3,5-dichlorophenyl)cyclopropane-1-carboxamido)-N-(pyridin-2-yl)benzamide] showed a pest or weed control at 50 µg/cm2 [1] of 50 to 100% and a pest or weed control at 50 µg/cm2 [2] of 50 to 100%.
For `O=C(Nc1ccc(F)cc1)c1cc(NC(=O)[C@H]2[C@H](c3cc(C(F)(F)F)cc(C(F)(F)F)c3)C2(Cl)Cl)ccc1Cl` (relative stereo) [F84, trans-5-(3-(3,5-Bis(trifluoromethyl)phenyl)-2,2-dichlorocyclopropane-1-carboxamido)-2-chloro-N-(4-fluorophenyl)benzamide], the pest or weed control at 50 µg/cm2 [1] was 50 to 100% and the pest or weed control at 50 µg/cm2 [2] was 50 to 100%.
`O=C(Nc1c(F)cccc1F)c1cc(NC(=O)[C@H]2[C@H](c3cc(C(F)(F)F)cc(C(F)(F)F)c3)C2(Cl)Cl)ccc1Cl` (relative stereo) [F86, trans-5-(3-(3,5-Bis(trifluoromethyl)phenyl)-2,2-dichlorocyclopropane-1-carboxamido)-2-chloro-N-(2,6-difluorophenyl)benzamide] showed a pest or weed control at 50 µg/cm2 [1] of 50 to 100% and a pest or weed control at 50 µg/cm2 [2] of 50 to 100%.
`O=C(Nc1c(F)cccc1F)c1cc(NC(=O)[C@H]2[C@H](c3cc(Cl)cc(C(F)(F)F)c3)C2(Cl)Cl)ccc1Cl` (relative stereo) [F89, trans-2-Chloro-5-(2,2-dichloro-3-(3-chloro-5-(trifluoromethyl)phenyl)cyclopropane-1-carboxamido)-N-(2,6-difluorophenyl)benzamide] was tested, and the pest or weed control at 50 µg/cm2 [1] was 50 to 100% and the pest or weed control at 50 µg/cm2 [2] was 50 to 100%.
`O=C(Nc1ccc(F)cc1)c1cc(NC(=O)[C@H]2[C@H](c3cc(Br)cc(Br)c3)C2(Cl)Cl)ccc1Cl` (relative stereo) [F90, trans-2-Chloro-5-(2,2-dichloro-3-(3,5-dibromophenyl)cyclopropane-1-carboxamido)-N-(4-fluorophenyl)benzamide] was tested, and the pest or weed control at 50 µg/cm2 [1] was 50 to 100% and the pest or weed control at 50 µg/cm2 [2] was 50 to 100%.
`O=C(Nc1c(F)cccc1F)c1cc(NC(=O)[C@H]2[C@H](c3cc(Br)cc(Br)c3)C2(Cl)Cl)ccc1Cl` (relative stereo) [F92, trans-2-Chloro-5-(2,2-dichloro-3-(3,5-dibromophenyl)cyclopropane-1-carboxamido)-N-(2,6-difluorophenyl)benzamide] showed a pest or weed control at 50 µg/cm2 [1] of 50 to 100% and a pest or weed control at 50 µg/cm2 [2] of 50 to 100%.
`N#Cc1ccc(NC(=O)c2cc(NC(=O)[C@H]3[C@H](c4cc(Cl)cc(Cl)c4)C3(Cl)Cl)ccc2F)c(F)c1` (relative stereo) [F93, trans-N-(4-Cyano-2-fluorophenyl)-5-(2,2-dichloro-3-(3,5-dichlorophenyl)cyclopropane-1-carboxamido)-2-fluorobenzamide] showed a pest or weed control at 50 µg/cm2 [1] of 50 to 100% and a pest or weed control at 50 µg/cm2 [2] of 50 to 100%.
`N#Cc1ccc(NC(=O)c2cc(NC(=O)[C@H]3[C@H](c4ccc(Cl)c(Cl)c4)C3(Cl)Cl)ccc2F)c(F)c1` (relative stereo) [F94, trans-N-(4-Cyano-2-fluorophenyl)-5-(2,2-dichloro-3-(3,4-dichlorophenyl)cyclopropane-1-carboxamido)-2-fluorobenzamide] gave a pest or weed control at 50 µg/cm2 [1] of 50 to 100% and a pest or weed control at 50 µg/cm2 [2] of 50 to 100%.
Work on `N#Cc1ccc(NC(=O)c2cc(NC(=O)[C@H]3[C@H](c4cc(Cl)c(Cl)c(Cl)c4)C3(Cl)Cl)ccc2F)c(F)c1` (relative stereo) [F95, trans-N-(4-Cyano-2-fluorophenyl)-5-(2,2-dichloro-3-(3,4,5-trichlorophenyl)cyclopropane-1-carboxamido)-2-fluorobenzamide] yielded a pest or weed control at 50 µg/cm2 [1] of 50 to 100% and a pest or weed control at 50 µg/cm2 [2] of 50 to 100%.
Compound `CN(C(=O)c1cc(NC(=O)[C@H]2[C@H](c3cc(Cl)c(F)c(Cl)c3)C2(Cl)Cl)ccc1Cl)c1ccc(F)cc1` (relative stereo) [F97, trans-2-Chloro-5-(2,2-dichloro-3-(3,5-dichloro-4-fluorophenyl)cyclopropane-1-carboxamido)-N-(4-fluorophenyl)-N-methylbenzamide] has a pest or weed control at 50 µg/cm2 [1] of 50 to 100% and a pest or weed control at 50 µg/cm2 [2] of 50 to 100%.
For `O=C(Nc1c(F)cccc1F)c1cc(NC(=O)[C@H]2[C@H](c3cc(Cl)c(F)c(Cl)c3)C2(Cl)Cl)ccc1Cl` (relative stereo) [F98, trans-2-Chloro-5-(2,2-dichloro-3-(3,5-dichloro-4-fluorophenyl)cyclopropane-1-carboxamido)-N-(2,6-difluorophenyl)benzamide], the pest or weed control at 50 µg/cm2 [1] was 50 to 100% and the pest or weed control at 50 µg/cm2 [2] was 50 to 100%.
Compound `C=CCN(C(=O)c1cc(NC(=O)[C@H]2[C@H](c3cc(Cl)cc(Cl)c3)C2(Cl)Cl)ccc1Cl)c1ccc(F)cc1` (relative stereo) [F102, trans-N-Allyl-2-chloro-5-(2,2-dichloro-3-(3,5-dichlorophenyl)cyclopropane-1-carboxamido)-N-(4-fluorophenyl)benzamide] has a pest or weed control at 50 µg/cm2 [1] of 50 to 100% and a pest or weed control at 50 µg/cm2 [2] of 50 to 100%.
Work on `N#Cc1ccc(NC(=O)c2cc(NC(=O)[C@H]3[C@H](c4ccc(Cl)c(Cl)c4)C3(Cl)Cl)ccc2Cl)c(F)c1` (relative stereo) [F103, trans-2-chloro-N-(4-cyano-2-fluorophenyl)-5-(2,2-dichloro-3-(3,4-dichlorophenyl)cyclopropane-1-carboxamido)benzamide] yielded a pest or weed control at 50 µg/cm2 [1] of 50 to 100% and a pest or weed control at 50 µg/cm2 [2] of 50 to 100%.
With `N#Cc1ccc(NC(=O)c2cc(NC(=O)[C@H]3[C@H](c4cc(Cl)c(Cl)c(Cl)c4)C3(Cl)Cl)ccc2Cl)c(F)c1` (relative stereo) [F104, trans-2-Chloro-N-(4-cyano-2-fluorophenyl)-5-(2,2-dichloro-3-(3,4,5-trichlorophenyl)cyclopropane-1-carboxamido)benzamide] the pest or weed control at 50 µg/cm2 [1] was 50 to 100% and the pest or weed control at 50 µg/cm2 [2] was 50 to 100%.
For `CN(C(=O)c1cc(NC(=O)[C@H]2[C@H](c3cc(Cl)c(Cl)c(Cl)c3)C2(Cl)Cl)ccc1F)c1ccc(C#N)cc1F` (relative stereo) [F105, trans-N-(4-Cyano-2-fluorophenyl)-5-(2,2-dichloro-3-(3,4,5-trichlorophenyl)cyclopropane-1-carboxamido)-2-fluoro-N-methylbenzamide], the pest or weed control at 50 µg/cm2 [1] was 50 to 100% and the pest or weed control at 50 µg/cm2 [2] was 50 to 100%.
Compound `CN(C(=O)c1cc(NC(=O)[C@H]2[C@H](c3cc(Cl)cc(Cl)c3)C2(Cl)Cl)ccc1Cl)c1ccc(C#N)cc1F` (relative stereo) [F106, trans-2-Chloro-N-(4-cyano-2-fluorophenyl)-5-(2,2-dichloro-3-(3,5-dichlorophenyl)cyclopropane-1-carboxamido)-N-methylbenzamide] has a pest or weed control at 50 µg/cm2 [1] of 50 to 100% and a pest or weed control at 50 µg/cm2 [2] of 50 to 100%.
In the case of `CN(C(=O)c1cc(NC(=O)[C@H]2[C@H](c3ccc(Cl)c(Cl)c3)C2(Cl)Cl)ccc1Cl)c1ccc(C#N)cc1F` (relative stereo) [F107, trans-2-Chloro-N-(4-cyano-2-fluorophenyl)-5-(2,2-dichloro-3-(3,4-dichlorophenyl)cyclopropane-1-carboxamido)-N-methylbenzamide], the pest or weed control at 50 µg/cm2 [1] was 50 to 100% and the pest or weed control at 50 µg/cm2 [2] was 50 to 100%.
Work on `CN(C(=O)c1cc(NC(=O)[C@H]2[C@H](c3cc(Cl)c(Cl)c(Cl)c3)C2(Cl)Cl)ccc1Cl)c1ccc(C#N)cc1F` (relative stereo) [F108, trans-2-Chloro-N-(4-cyano-2-fluorophenyl)-5-(2,2-dichloro-3-(3,4,5-trichlorophenyl)cyclopropane-1-carboxamido)-N-methylbenzamide] yielded a pest or weed control at 50 µg/cm2 [1] of 50 to 100% and a pest or weed control at 50 µg/cm2 [2] of 50 to 100%.
With `O=C(Nc1ccc(F)cc1)c1cc(NC(=O)[C@H]2[C@H](c3ccccc3)C2(Cl)Cl)ccc1Cl` (relative stereo) [F109, trans-2-Chloro-5-(2,2-dichloro-3-phenylcyclopropane-1-carboxamido)-N-(4-fluorophenyl)benzamide] the pest or weed control at 50 µg/cm2 [1] was 50 to 100% and the pest or weed control at 50 µg/cm2 [2] was 50 to 100%.
